From patent US20220160712A1, “METHODS OF TREATING RHEUMATOID ARTHRITIS AND FOR PREDICTING THE RESPONSE TO METHOTREXATE” (CHAN ZUCKERBERG BIOHUB, INC., priority 2020, published 2022)

System: human gut bacterial isolates
Assay: In vitro bacterial growth studies (MIC, growth curves) on a panel of 45 isolates
Type: cell-based
Source text: 42/45 of the tested isolates are commonly found in the human gut microbiota, with the exceptions of Bacteroides acidifaciens (found in mice), Delftia acidovorans (found in soil), and Bacillus subtilis 168 (found in soil). Each of these strains was obtained from the Deutsche Sammlung von Mikroorganismen and Zellkulturen (DSMZ) culture collection. A single colony of each isolate was subcultured in Bacto Brain Heart Infusion (BD Biosciences, 37 g/L) supplemented with L-cysteine-HCl (0.05%, w/v), menadione (1 μg/mL), and hemin (5 μg/mL) (referred to hereafter as BHI+) for 48 hours in an anaerobic chamber (Coy Laboratory Products) at 37° C. with an atmosphere composed of 2-3% H2, 20% CO2, and the balance N2. This subculture was diluted down to an OD600 of 0.08-0.1, which was then further diluted 100-fold, and then used to inoculate a microtiter plate with 2-fold serial dilutions of MTX concentrations ranging from 0-900 μg/ml. Plates were incubated at 37° C. with shaking in an Eon Microplate Spectrophotometer (BioTek Instruments, Inc) over a 48 to 72-hour period in the anaerobic chamber. Growth was monitored every 15 minutes at OD600 and corrected for background (no growth control). Data were exported using the Gen5 (v 2.0) software. […] As with any in vitro system, the growth of cells may be dependent on the growth medium used, and for these studies, a rich medium (BHI+) was used.
Growth parameters (carrying capacity, time to mid-exponential and growth rate) were calculated in R using GrowthCurveR (Sprouffske, K., and Wagner, A. (2016), BMC Bioinformatics 17, 1726) (v0.2.1). Curves that could not be fit by the software (i.e., generated a warning/error message) were excluded from further analysis. […] Determination of dose-dependency was done by fitting a linear regression with methotrexate concentration as the independent variable and the estimated growth parameter as the dependent variable using lm from the stats package (v3.5.1). For rescue studies, as above, growth parameters (carrying capacity, time to mid-exponential, growth rate, and area under the curve) were calculated in R using GrowthCurveR (Sprouffske and Wagner, 2016) (v0.2.1). Four isolates were evaluated with varying sensitivity to MTX (B. thetaiotaomicron, B. vulgatus, C. innocuum and C. symbiosum). C. asparagiforme was excluded because rescue of growth would be difficult to identify in this MTX resistant strain (FIG. 2D). Growth curves at 9 concentrations of MTX tested against 7 concentrations of folic acid were measured. Determination of dose-dependency at each tested concentration of MTX was done by fitting a linear regression with folic acid or leucovorin concentration as the independent variable and the estimated growth parameter as the dependent variable using lm from the stats package (v3.5.1). […] A p-value cutoff of p<0.05 was used to identify effects that were dose-dependent based on the linear regression.

For `CN(Cc1cnc2nc(N)nc(N)c2n1)c1ccc(C(=O)N[C@@H](CCC(=O)O)C(=O)O)cc1` [MTX, methotrexate], the “percentage of tested isolates inhibited at the estimated concentration in the proximal GI tract” value (22-220 μM or 10-100 μg/ml MTX, 5-15 of 45 isolates) was 11-33%, the “Minimal inhibitory concentration (MIC)” value (45 isolates, MTX 1.7-900 μg/ml, 2-2,000 μM, 48 hours, BHI+, anaerobic) was “ranged across the full gradient” and the “number of isolates resistant to the maximum concentration tested” value (45 isolates, maximum 900 μg/ml, 48 hours) was 11. For the same compound, the “sensitivity of Bacteroidetes relative to the other phyla” value (MICs of isolates spanning 4 major phyla (FIG. 2B)) was “tended to be sensitive”, the “isolates with full growth inhibition or alterations in growth curve parameters” value (MTX concentrations predicted to be found in the human gut, 36/45 isolates) was 80% and the “percentage of tested isolates with at least one growth parameter affected in a dose-dependent manner” value (sub-MIC concentrations, subset of strains with growth curves) was 78%.
